{
  "source": "the NIST ThermoML archive (doi:10.1021/je5010214)",
  "settings": "Liquid, Vibrating tube method",
  "note": "± gives the expanded uncertainty stated by the source.",
  "data": [
    {"smiles": "CCCCCCC", "note": "[heptane]", "values": [
      {"measurement": "mass density", "setting": "313.15 K, 19932 kPa", "result": "686.1 ± 0.88", "unit": "kg/m3"},
      {"measurement": "mass density", "setting": "313.15 K, 22058 kPa", "result": "687.733 ± 0.89", "unit": "kg/m3"},
      {"measurement": "mass density", "setting": "313.15 K, 24862 kPa", "result": "690.068 ± 0.9", "unit": "kg/m3"},
      {"measurement": "mass density", "setting": "313.15 K, 27869 kPa", "result": "692.385 ± 0.91", "unit": "kg/m3"},
      {"measurement": "mass density", "setting": "313.15 K, 29957 kPa", "result": "693.806 ± 0.92", "unit": "kg/m3"},
      {"measurement": "mass density", "setting": "313.15 K, 32107 kPa", "result": "695.43 ± 0.93", "unit": "kg/m3"},
      {"measurement": "mass density", "setting": "313.15 K, 32980 kPa", "result": "696.141 ± 0.94", "unit": "kg/m3"},
      {"measurement": "mass density", "setting": "313.15 K, 33002 kPa", "result": "696.147 ± 0.94", "unit": "kg/m3"},
      {"measurement": "mass density", "setting": "313.15 K, 33981 kPa", "result": "697.086 ± 0.94", "unit": "kg/m3"},
      {"measurement": "mass density", "setting": "313.15 K, 35045 kPa", "result": "697.948 ± 0.95", "unit": "kg/m3"},
      {"measurement": "mass density", "setting": "313.15 K, 38127 kPa", "result": "700.098 ± 0.96", "unit": "kg/m3"},
      {"measurement": "mass density", "setting": "313.15 K, 41978 kPa", "result": "702.778 ± 0.99", "unit": "kg/m3"},
      {"measurement": "mass density", "setting": "313.15 K, 44946 kPa", "result": "704.758 ± 1", "unit": "kg/m3"},
      {"measurement": "mass density", "setting": "313.15 K, 47880 kPa", "result": "706.851 ± 1", "unit": "kg/m3"},
      {"measurement": "mass density", "setting": "313.15 K, 52097 kPa", "result": "709.812 ± 1", "unit": "kg/m3"},
      {"measurement": "mass density", "setting": "313.15 K, 54924 kPa", "result": "711.549 ± 1.1", "unit": "kg/m3"},
      {"measurement": "mass density", "setting": "313.15 K, 58082 kPa", "result": "713.474 ± 1.1", "unit": "kg/m3"},
      {"measurement": "mass density", "setting": "313.15 K, 59932 kPa", "result": "714.707 ± 1.1", "unit": "kg/m3"},
      {"measurement": "mass density", "setting": "313.15 K, 62004 kPa", "result": "716.103 ± 1.1", "unit": "kg/m3"},
      {"measurement": "mass density", "setting": "313.15 K, 64954 kPa", "result": "717.814 ± 1.1", "unit": "kg/m3"},
      {"measurement": "mass density", "setting": "313.15 K, 66113 kPa", "result": "718.367 ± 1.1", "unit": "kg/m3"},
      {"measurement": "mass density", "setting": "313.16 K, 860.7 kPa", "result": "667.671 ± 0.82", "unit": "kg/m3"},
      {"measurement": "mass density", "setting": "313.16 K, 39997 kPa", "result": "701.327 ± 0.97", "unit": "kg/m3"},
      {"measurement": "mass density", "setting": "313.16 K, 50021 kPa", "result": "708.33 ± 1", "unit": "kg/m3"},
      {"measurement": "mass density", "setting": "318.15 K, 100.7 kPa", "result": "662.812 ± 0.81", "unit": "kg/m3"},
      {"measurement": "mass density", "setting": "318.15 K, 336.3 kPa", "result": "663.228 ± 0.81", "unit": "kg/m3"},
      {"measurement": "mass density", "setting": "318.15 K, 1105.7 kPa", "result": "663.94 ± 0.82", "unit": "kg/m3"},
      {"measurement": "mass density", "setting": "318.15 K, 1929.1 kPa", "result": "664.905 ± 0.82", "unit": "kg/m3"},
      {"measurement": "mass density", "setting": "318.15 K, 2933.2 kPa", "result": "665.972 ± 0.82", "unit": "kg/m3"},
      {"measurement": "mass density", "setting": "318.15 K, 8989 kPa", "result": "672.331 ± 0.84", "unit": "kg/m3"},
      {"measurement": "mass density", "setting": "318.15 K, 10074 kPa", "result": "673.533 ± 0.84", "unit": "kg/m3"},
      {"measurement": "mass density", "setting": "318.15 K, 11896 kPa", "result": "675.253 ± 0.85", "unit": "kg/m3"},
      {"measurement": "mass density", "setting": "318.15 K, 18102 kPa", "result": "681.046 ± 0.87", "unit": "kg/m3"},
      {"measurement": "mass density", "setting": "318.15 K, 19985 kPa", "result": "682.727 ± 0.88", "unit": "kg/m3"},
      {"measurement": "mass density", "setting": "318.15 K, 22094 kPa", "result": "684.679 ± 0.89", "unit": "kg/m3"},
      {"measurement": "mass density", "setting": "318.15 K, 29998 kPa", "result": "691.196 ± 0.93", "unit": "kg/m3"},
      {"measurement": "mass density", "setting": "318.15 K, 33016 kPa", "result": "693.259 ± 0.94", "unit": "kg/m3"},
      {"measurement": "mass density", "setting": "318.15 K, 33180 kPa", "result": "693.331 ± 0.94", "unit": "kg/m3"},
      {"measurement": "mass density", "setting": "318.15 K, 37838 kPa", "result": "697.046 ± 0.97", "unit": "kg/m3"},
      {"measurement": "mass density", "setting": "318.15 K, 40092 kPa", "result": "698.439 ± 0.98", "unit": "kg/m3"},
      {"measurement": "mass density", "setting": "318.15 K, 44884 kPa", "result": "701.561 ± 1", "unit": "kg/m3"},
      {"measurement": "mass density", "setting": "318.15 K, 47944 kPa", "result": "703.663 ± 1", "unit": "kg/m3"},
      {"measurement": "mass density", "setting": "318.15 K, 54944 kPa", "result": "708.215 ± 1.1", "unit": "kg/m3"},
      {"measurement": "mass density", "setting": "318.15 K, 57972 kPa", "result": "710.506 ± 1.1", "unit": "kg/m3"},
      {"measurement": "mass density", "setting": "318.15 K, 59922 kPa", "result": "711.605 ± 1.1", "unit": "kg/m3"},
      {"measurement": "mass density", "setting": "318.15 K, 65022 kPa", "result": "714.898 ± 1.1", "unit": "kg/m3"},
      {"measurement": "mass density", "setting": "318.15 K, 66028 kPa", "result": "715.438 ± 1.1", "unit": "kg/m3"},
      {"measurement": "mass density", "setting": "318.16 K, 590.9 kPa", "result": "663.443 ± 0.81", "unit": "kg/m3"},
      {"measurement": "mass density", "setting": "318.16 K, 891 kPa", "result": "663.766 ± 0.82", "unit": "kg/m3"},
      {"measurement": "mass density", "setting": "318.16 K, 5020.8 kPa", "result": "668.355 ± 0.83", "unit": "kg/m3"},
      {"measurement": "mass density", "setting": "318.16 K, 6926.7 kPa", "result": "670.309 ± 0.83", "unit": "kg/m3"},
      {"measurement": "mass density", "setting": "318.16 K, 14800 kPa", "result": "678.075 ± 0.86", "unit": "kg/m3"},
      {"measurement": "mass density", "setting": "318.16 K, 24873 kPa", "result": "686.865 ± 0.9", "unit": "kg/m3"},
      {"measurement": "mass density", "setting": "318.16 K, 27909 kPa", "result": "689.38 ± 0.92", "unit": "kg/m3"},
      {"measurement": "mass density", "setting": "318.16 K, 31957 kPa", "result": "692.414 ± 0.94", "unit": "kg/m3"},
      {"measurement": "mass density", "setting": "318.16 K, 34110 kPa", "result": "694.119 ± 0.95", "unit": "kg/m3"},
      {"measurement": "mass density", "setting": "318.16 K, 35048 kPa", "result": "694.934 ± 0.95", "unit": "kg/m3"},
      {"measurement": "mass density", "setting": "318.16 K, 41996 kPa", "result": "699.6 ± 0.99", "unit": "kg/m3"},
      {"measurement": "mass density", "setting": "318.16 K, 49950 kPa", "result": "705.2 ± 1", "unit": "kg/m3"},
      {"measurement": "mass density", "setting": "318.16 K, 52037 kPa", "result": "706.412 ± 1", "unit": "kg/m3"},
      {"measurement": "mass density", "setting": "318.16 K, 61930 kPa", "result": "712.85 ± 1.1", "unit": "kg/m3"},
      {"measurement": "mass density", "setting": "323.15 K, 102.3 kPa", "result": "658.378 ± 0.81", "unit": "kg/m3"},
      {"measurement": "mass density", "setting": "323.15 K, 296.1 kPa", "result": "658.71 ± 0.81", "unit": "kg/m3"},
      {"measurement": "mass density", "setting": "323.15 K, 528.4 kPa", "result": "658.782 ± 0.81", "unit": "kg/m3"},
      {"measurement": "mass density", "setting": "323.15 K, 994.2 kPa", "result": "659.429 ± 0.82", "unit": "kg/m3"},
      {"measurement": "mass density", "setting": "323.15 K, 2006.9 kPa", "result": "660.61 ± 0.82", "unit": "kg/m3"},
      {"measurement": "mass density", "setting": "323.15 K, 2966.6 kPa", "result": "661.806 ± 0.82", "unit": "kg/m3"},
      {"measurement": "mass density", "setting": "323.15 K, 4996.2 kPa", "result": "663.968 ± 0.83", "unit": "kg/m3"},
      {"measurement": "mass density", "setting": "323.15 K, 7042.1 kPa", "result": "666.276 ± 0.83", "unit": "kg/m3"},
      {"measurement": "mass density", "setting": "323.15 K, 9029.9 kPa", "result": "667.858 ± 0.84", "unit": "kg/m3"},
      {"measurement": "mass density", "setting": "323.15 K, 10090 kPa", "result": "669.742 ± 0.84", "unit": "kg/m3"},
      {"measurement": "mass density", "setting": "323.15 K, 11914 kPa", "result": "670.973 ± 0.85", "unit": "kg/m3"},
      {"measurement": "mass density", "setting": "323.15 K, 15111 kPa", "result": "674.373 ± 0.86", "unit": "kg/m3"},
      {"measurement": "mass density", "setting": "323.15 K, 17981 kPa", "result": "677.251 ± 0.87", "unit": "kg/m3"},
      {"measurement": "mass density", "setting": "323.15 K, 20038 kPa", "result": "678.71 ± 0.88", "unit": "kg/m3"},
      {"measurement": "mass density", "setting": "323.15 K, 21995 kPa", "result": "680.737 ± 0.89", "unit": "kg/m3"},
      {"measurement": "mass density", "setting": "323.15 K, 24993 kPa", "result": "683.213 ± 0.9", "unit": "kg/m3"},
      {"measurement": "mass density", "setting": "323.15 K, 32079 kPa", "result": "689.177 ± 0.94", "unit": "kg/m3"},
      {"measurement": "mass density", "setting": "323.15 K, 33103 kPa", "result": "689.972 ± 0.94", "unit": "kg/m3"}
    ]}
  ]
}
